pIC50: −log10 of the molar value.
Assays:
Type in all cases: cell-based
[1] = system: KRAS G12D mutant human lung cancer cell A427; test: 3D cell proliferation inhibition assay, A427; conditions: A-427, 168 h, 3D culture, 7 days, CTG
Outline: (§1)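 Cells were seeded in low-adsorption 96-well plates at 5×10^2 cells/well (MKN1 at 1×10^3) with compounds at final 10000-0.026 nM, 0.2% DMSO, and grown 7 days at 37° C. CTG luminescence gave inhibition relative to DMSO and medium-only controls, and IC50 came from a log-concentration curve fit.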

[2] = system: KRAS G13D mutant human colorectal cancer epithelial cell DLD-1; test: 3D cell proliferation inhibition assay, DLD-1; conditions: DLD-1, 168 h, 3D culture, 7 days, CTG
Outline: as §1

[3] = system: KRAS G12C mutant human non-small cell lung cancer cell NCI-H358; test: 3D cell proliferation inhibition assay, NCI-H358; conditions: NCI-H358, 168 h, 3D culture, 7 days, CTG
Outline: as §1

[4] = system: KRAS G12V mutant human lung squamous carcinoma cell SW900; test: 3D cell proliferation inhibition assay, SW900; conditions: SW900, 168 h, 3D culture, 7 days, CTG
[5] = system: KRAS G12D mutant human metastatic pancreatic cancer cell AsPc-1; test: 3D cell proliferation inhibition assay, AsPc-1; conditions: ASPC1, 168 h, 3D culture, 7 days, CTG
Outline: as §1

[6] = target: T1, KRAS G12V protein in SW900 cells (Homo sapiens, UniProt P01116, G12V); test: KRAS degradation assay (Western Blot) in SW900 cells; conditions: 24 h
T1 construct: endogenous in cells; host or cells: SW900
Outline: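 Compounds were added at final concentrations of 0.03–3000 nM (0.25% DMSO) to overnight-plated cells and left for 24 h. Lysates, equalised by BCA, were immunoblotted for KRAS and β-actin, and DC50 and Dmax were derived from normalised band intensities relative to control.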

[7] = system: KRAS WT human gastric cancer cell MKN1; test: 3D cell proliferation inhibition assay, MKN1; conditions: MKN-1, 168 h, 3D culture, 7 days, CTG
Outline: as §1

[8] = system: KRAS G12D mutant human gastric cancer cell AGS; test: 3D cell proliferation inhibition assay, AGS; conditions: 168 h, 3D culture, 7 days, CTG
Outline: as §1

[9] = system: KRAS G12V mutant human colorectal cancer cell SW620; test: 3D cell proliferation inhibition assay, SW620; conditions: SW-620, 168 h, 3D culture, 7 days, CTG
Outline: as §1

[10] = target: T2, KRAS G12D protein in AsPc-1 cells (Homo sapiens, UniProt P01116, G12D); test: KRAS degradation assay (Western Blot) in AsPc-1 cells; conditions: for DC50: 24 h; for Dmax: ASPC1, 24 h
T2 construct: endogenous in cells; host or cells: AsPc-1
Text: (§2) Test Example 5: KRAS G12C, KRAS G12D, KRAS G12V, KRAS G13D, and KRAS WT (Expanded) Degradation Assays
(§3) The degradation effect of the compounds on KRAS was investigated on KRAS G12C mutant human non-small cell lung cancer cell NCI-H358, KRAS G12D mutant human metastatic pancreatic cancer cell AsPc-1, KRAS G12D mutant human lung cancer cell A427, KRAS G12V mutant human colorectal cancer cell SW620, KRAS G12V mutant human lung cancer cell SW900, KRAS G13D mutant human colorectal cancer epithelial cell DLD-1, and KRAS WT human gastric cancer cell MKN-1. The specific procedures were as follows: 0.95 mL of cells were seeded into each well of a 24-well cell culture plate to achieve a cell density of 5×10^5 cells/well; and the cell plate was incubated in an incubator at 37° C. with 5% CO2 overnight. Then 50 μL of the compound solution after dilution was added to each of the wells with the corresponding cells, so that the final concentration of the compound was in a range of 0.03-3000 nM. The final concentration of DMSO was 0.25%. After the compounds were added, the cell plate was incubated in an incubator at 37° C. with 5% CO2 for 24 h. The culture medium in the 24-well cell culture plate was then removed, and the plate was washed twice with 1×PBS (KeyGEN). 120 μL of RIPA (strong) lysis buffer (Beyotime) (supplemented with 1 mM phenylmethylsulfonyl fluoride, a protease inhibitor mixture (Beyotime), and a protease phosphatase inhibitor mixture (Beyotime)) was added to lyse adherent SW900 cells at the bottom of the cell culture plate. After the plate was left to stand on ice for 30 min, the protein lysate in each well was transferred to a 1.5 mL centrifuge tube and centrifuged at 15000 g for 20 min at 4° C. The cell lysate supernatants after centrifugation were cryopreserved in a refrigerator at −80° C. for later use.
(§4) After the samples of the cell lysate supernatants that had been prepared were thawed from the refrigerator at −80° C., the total protein concentrations of the cell lysates were determined using a BCA protein quantification kit (Tiangen). The total protein concentrations of the samples were then adjusted to 0.5 μg/μL with PBS and 5×SDS-PAGE protein loading buffer (Beyotime), and the samples were incubated in a water bath at 100° C. for 15 min. The samples were then incubated in an ice bath for 5 min and centrifuged at 14000 g for 1 min at 4° C., and the supernatants were mixed well as loading samples for the Western Blot assay. The samples were loaded into wells of a 10% precast gel (KeyGEN) with a loading volume of 10 μL (total protein: 5 μg), a sufficient Tris-MOPS-SDS running buffer (Adamas) was added, and then electrophoresis was performed at a constant voltage of 120 V for 55 min. After the electrophoresis, the proteins on the gel were transferred to PVDF membranes at a constant current of 250 mA for 55 min. After the membrane transfer, the PVDF membranes were incubated in 1× Quick Block blocking buffer (Beyotime)at room temperature for 30 min. After the blocking, the PVDF membranes were separately incubated at 4° C. overnight with the KRAS antibody (Abcam) diluted in a ratio of 1:1000 and the β-actin antibody (Abcam) diluted in a ratio of 1:2000 in 5% BSA as the diluent, and then washed with 1×TBST buffer (2.4 g of Tris, 8.8 g of NaCl, 1.5 mL of Tween 20, with pH adjusted to 7.4, with the volume brought to 1 L) 3 times for 10 min/time. The membranes were incubated with a secondary antibody (Abcam) diluted in 5% BSA at room temperature for 2 h, and then washed with 1×TBST buffer 3 times for 10 min/time. Finally, the membranes were incubated with Clarity Western ECL Substrate (BIO-RAD) for 5 min for luminescence and color development, and a ChemiScope 6200 Touch chemiluminescence imaging system (Clinx) was used for color development and protein mapping. Gray value analysis of the protein maps was performed using the chemiluminescence analysis software (Clinx). […]

[11] = target: T3, KRAS G13D protein in DLD-1 cells (Homo sapiens, UniProt P01116, G13D); test: KRAS degradation assay (Western Blot) in DLD-1 cells; conditions: 24 h
T3 construct: endogenous in cells; host or cells: DLD-1
Text: as §2, §3, §4

[12] = target: T4, KRAS G12V protein in SW620 cells (Homo sapiens, UniProt P01116, G12V); test: KRAS degradation assay (Western Blot) in SW620 cells
T4 construct: endogenous in cells; host or cells: SW620
Outline: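 Western blot read-out: KRAS band gray value divided by β-actin, compared with DMSO control to give degradation rate. DC50 and Dmax came from log concentration–response fits after 24 h compound exposure (0.03–3000 nM final, 0.25% DMSO) at 37 °C, 5% CO2.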

T1 sequence (P01116 1-188 isoform P01116-2 G12V): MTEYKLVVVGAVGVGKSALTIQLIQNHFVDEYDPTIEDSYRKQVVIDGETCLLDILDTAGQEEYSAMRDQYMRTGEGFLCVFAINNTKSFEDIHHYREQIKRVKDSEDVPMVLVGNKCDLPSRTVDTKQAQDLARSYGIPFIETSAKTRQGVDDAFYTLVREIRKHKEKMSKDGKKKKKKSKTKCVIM
T2 sequence (P01116 1-188 isoform P01116-2 G12D): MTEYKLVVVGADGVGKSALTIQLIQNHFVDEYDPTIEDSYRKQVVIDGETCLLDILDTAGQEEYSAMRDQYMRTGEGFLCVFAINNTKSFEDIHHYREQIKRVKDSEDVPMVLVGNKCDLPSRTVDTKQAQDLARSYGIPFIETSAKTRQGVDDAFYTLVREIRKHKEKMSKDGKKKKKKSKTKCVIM
T4 sequence (P01116 1-188 isoform P01116-2 G12V): as the sequence (P01116 1-188 isoform P01116-2 G12V) above
T3 sequence (P01116 1-188 isoform P01116-2 G13D): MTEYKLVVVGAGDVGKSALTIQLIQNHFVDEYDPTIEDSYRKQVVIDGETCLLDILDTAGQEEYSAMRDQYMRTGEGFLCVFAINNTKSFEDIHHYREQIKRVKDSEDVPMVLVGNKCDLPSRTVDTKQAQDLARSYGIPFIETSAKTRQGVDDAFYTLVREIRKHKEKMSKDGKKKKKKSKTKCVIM

| Compound | pIC50 [1] | pIC50 [2] | pIC50 [3] | pIC50 [4] | pIC50 [5] | DC50 [6] | Dmax [6] | pIC50 [7] | pIC50 [8] | pIC50 [9] | DC50 [10] | Dmax [10] | DC50 [11] | Dmax [11] | DC50 ([12]; 24 h) | Dmax ([12]; SW-620, 24 h) |
| --- | --- | --- | --- | --- | --- | --- | --- | --- | --- | --- | --- | --- | --- | --- | --- | --- |
| C#Cc1c(F)ccc2cc(O)cc(-c3ncc4c(N5CCCOCC5)nc(OCC5(CN6CCN(CC7CCC8(CC7)CCN(C(=O)c7ccc(C)c(N9CCC(=O)NC9=O)c7)CC8)CC6)CC5)nc4c3F)c12 [Example 36, 1-(5-(9-((4-((1-(((7-(8-ethynyl-7-fluoro-3-hydroxynaphthalen-1-yl)-8-fluoro-4-(1,4-oxazepan-4-yl)pyrido[4,3-d]pyrimidin-2-yl)oxy)methyl)cyclopropyl)methyl)piperazin-1-yl)methyl)-3-azaspiro[5.5]undecane-3-carbonyl)-2-methylphenyl)dihydropyrimidine-2,4(1H,3H)-dione] | 7.00 to 7.30 | ≥ 7.30 | 7.00 to 7.30 | ≥ 7.30 | ≥ 7.30 | ≤ 50 nM | 80 to 100% | ≥ 7.30 | ≥ 7.30 | 8.47 | – | – | – | – | – | – |
| C#Cc1cccc2cc(O)cc(-c3ncc4c(N5CCCOCC5)nc(OCC5(CN6CCN(CC7CCC8(CC7)CCN(C(=O)c7ccc(OC)c(N9CCC(=O)NC9=O)c7)CC8)CC6)CC5)nc4c3F)c12 [Example 39, 1-(5-(9-((4-((1-(((7-(8-ethynyl-3-hydroxynaphthalen-1-yl)-8-fluoro-4-(1,4-oxazepan-4-yl)pyrido[4,3-d]pyrimidin-2-yl)oxy)methyl)cyclopropyl)methyl)piperazin-1-yl)methyl)-3-azaspiro[5.5]undecane-3-carbonyl)-2-methoxyphenyl)dihydropyrimidine-2,4(1H,3H)-dione] | – | 7.06 | 7.93 | – | – | ≤ 50 nM | 80 to 100% | – | – | 7.45 | ≤ 50 nM | 50 to 80% | – | – | – | – |
| CCc1c(F)ccc2cc(O)cc(-c3ncc4c(N5CCC[C@@](C)(O)C5)nc(OCC5(CN6CCN(CC7CCC8(CC7)CCN(C(=O)c7ccc(OC)c(N9CCC(=O)NC9=O)c7)CC8)CC6)CC5)nc4c3F)c12 [Example 42, (R)-1-(5-(9-((4-((1-(((7-(8-ethyl-7-fluoro-3-hydroxynaphthalen-1-yl)-8-fluoro-4-(3-hydroxy-3-methylpiperidin-1-yl)pyrido[4,3-d]pyrimidin-2-yl)oxy)methyl)cyclopropyl)methyl)piperazin-1-yl)methyl)-3-azaspiro[5.5]undecane-3-carbonyl)-2-methoxyphenyl)dihydropyrimidine-2,4(1H,3H)-dione] | 6.30 to 7.00 | ≥ 7.30 | ≥ 7.30 | ≥ 7.30 | ≥ 7.30 | ≤ 50 nM | 80 to 100% | ≥ 7.30 | ≥ 7.30 | 8.67 | – | – | ≤ 50 nM | 80 to 100% | – | – |
| CCc1cccc2cc(O)cc(-c3ccc4c(N5CCC[C@@](C)(O)C5)nc(OCC5(CN6CCN(CC7CCC8(CC7)CCN(C(=O)c7ccc(C)c(N9CCC(=O)NC9=O)c7)CC8)CC6)CC5)nc4c3F)c12 [Example 49, (R)-1-(5-(9-((4-((1-(((7-(8-ethyl-3-hydroxynaphthalen-1-yl)-8-fluoro-4-(3-hydroxy-3-methylpiperidin-1-yl)quinazolin-2-yl)oxy)methyl)cyclopropyl)methyl)piperazin-1-yl)methyl)-3-azaspiro[5.5]undecane-3-carbonyl)-2-methylphenyl)dihydropyrimidine-2,4(1H,3H)-dione] | – | 7.34 | 7.17 | 6.28 | – | 62.9 nM | 75.3% | 7.41 | – | 7.56 | 822 nM | 57% | – | – | – | – |
| C#Cc1c(F)ccc2cc(O)cc(-c3ncc4c(N5CCCC(C)(N)C5)nc(OCC5(CN6CCN(CC7CCC8(CC7)CCN(C(=O)c7ccc(OC)c(N9CCC(=O)NC9=O)c7)CC8)CC6)CC5)nc4c3F)c12 (stereo not drawn) [Example 163, 1-(5-(9-((4-((1-(((4-(3-amino-3-methylpiperidin-1-yl)-7-(8-ethynyl-7-fluoro-3-hydroxynaphthalen-1-yl)-8-fluoropyrido[4,3-d]pyrimidin-2-yl)oxy)methyl)cyclopropyl)methyl)piperazin-1-yl)methyl)-3-azaspiro[5.5]undecane-3-carbonyl)-2-methoxyphenyl)dihydropyrimidine-2,4(1H,3H)-dione] | 6.25 | – | 6.38 | 6.63 | 6.43 | 251 nM | 71% | 6.43 | 6.23 | 6.54 | 185 nM | 89% | – | – | – | – |
| C#Cc1c(F)ccc2cc(O)cc(-c3ncc4c(N5CCOCC(C)(O)C5)nc(OCC5(CN6CCN(CC7CCC8(CC7)CCN(C(=O)c7ccc(OC)c(N9CCC(=O)NC9=O)c7)CC8)CC6)CC5)nc4c3F)c12 (stereo not drawn) [Example 165, 1-(5-(9-((4-((1-(((7-(8-ethynyl-7-fluoro-3-hydroxynaphthalen-1-yl)-8-fluoro-4-(6-hydroxy-6-methyl-1,4-oxazepan-4-yl)pyrido[4,3-d]pyrimidin-2-yl)oxy)methyl)cyclopropyl)methyl)piperazin-1-yl)methyl)-3-azaspiro[5.5]undecane-3-carbonyl)-2-methoxyphenyl)dihydropyrimidine-2,4(1H,3H)-dione] | 6.96 | 7.72 | 8.14 | 7.81 | 7.73 | 5.9 nM | 100% | 7.28 | 7.56 | 8.34 | 13.4 nM | 100% | – | – | 7.6 nM | 100% |

Reference: patent publication US20260167622A1, “PAN-KRAS DEGRADING AGENT, AND PREPARATION METHOD THEREFOR AND USE THEREOF” (LEADINGTAC PHARMACEUTICAL (SHAOXING) CO., LTD., priority 2022, published 2026)
